Reference: the NIST ThermoML archive (doi:10.1016/j.tca.2005.10.007)

Details: 101.33 kPa, Liquid, Vibrating tube method

CC(O)CN (stereo unspecified) [1-amino-2-propanol]
Details	mass density [kg/m3]
321.15 K	937.72
321.65 K	937.31
322.15 K	936.9
322.65 K	936.49
323.15 K	936.08
323.65 K	935.66
324.15 K	935.25
324.65 K	934.83
325.15 K	934.42
325.65 K	934.01
326.15 K	933.59
326.65 K	933.18
327.15 K	932.76
327.65 K	932.35
328.15 K	931.93
328.66 K	931.51
329.15 K	931.09
329.66 K	930.68
330.16 K	930.26
330.66 K	929.84
331.15 K	929.42
331.66 K	929
332.16 K	928.58
332.66 K	928.16
333.16 K	927.74
333.66 K	927.31
334.16 K	926.89
334.66 K	926.47
335.16 K	926.05
335.66 K	925.63
336.16 K	925.2
336.66 K	924.78
337.16 K	924.36
337.66 K	923.93
338.16 K	923.5
338.66 K	923.08
339.16 K	922.65
339.66 K	922.23
340.16 K	921.8
340.66 K	921.38
341.16 K	920.95
341.66 K	920.52
342.16 K	920.09
342.66 K	919.66
343.16 K	919.23
343.66 K	918.8
344.16 K	918.37
344.66 K	917.94
345.16 K	917.51
345.66 K	917.08
346.16 K	916.65
346.66 K	916.21
347.16 K	915.78
347.66 K	915.35
348.16 K	914.92
348.66 K	914.48
349.16 K	914.05
349.66 K	913.61
350.16 K	913.18
350.66 K	912.74
351.16 K	912.3
351.66 K	911.87
352.16 K	911.43
352.66 K	910.99
353.16 K	910.55
353.66 K	910.12
354.16 K	909.68
354.66 K	909.23
355.16 K	908.8
355.66 K	908.35
356.16 K	907.91
356.66 K	907.47
357.16 K	907.03
357.66 K	906.59
358.16 K	906.14
358.66 K	905.7
359.16 K	905.26
359.66 K	904.81
360.16 K	904.36
360.65 K	903.92
361.16 K	903.47
361.66 K	903.03
362.16 K	902.58
362.66 K	902.13
363.15 K	901.68
363.16 K	901.69
